What follows are compounds tested against T1, Na+-dependent bile acid transportation system (Oryctolagus cuniculus, UniProt Q28727) (assay: Inhibition of [3H]-taurocholate uptake in brush border membrane vesicles from the ileum of rabbits). Details: Na+-dependent [3H]-taurocholate uptake (difference Na-T-P minus K-T-P), 50 μM taurocholate, rabbit ileum brush border membrane vesicles; drawing 7.
T1 construct: Brush border membrane vesicles were prepared from the intestinal cells of the small intestine; from tissue; host or cells: terminal 7/10 of the small intestine (ileum) of male New Zealand rabbits, mucosal brush border membrane vesicles
T1 sequence (Q28727 1-347): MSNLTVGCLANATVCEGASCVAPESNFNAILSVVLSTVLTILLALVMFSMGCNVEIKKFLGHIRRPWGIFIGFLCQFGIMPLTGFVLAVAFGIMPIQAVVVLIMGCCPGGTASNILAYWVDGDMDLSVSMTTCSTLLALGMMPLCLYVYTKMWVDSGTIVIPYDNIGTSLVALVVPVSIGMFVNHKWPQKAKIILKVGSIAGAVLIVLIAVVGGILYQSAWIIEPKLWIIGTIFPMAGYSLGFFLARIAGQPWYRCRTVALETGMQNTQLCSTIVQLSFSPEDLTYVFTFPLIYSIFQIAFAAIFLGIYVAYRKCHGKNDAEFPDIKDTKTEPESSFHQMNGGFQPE
Assay type: biochemical
Method: The compounds according to the invention were tested biologically by determination of the inhibition of [^3 H]taurocholate uptake in the brush border membrane vesicles from the ileum of rabbits. The inhibition test was carried out as follows:
1. Preparation of brush border membrane vesicles from the ileum of rabbits
Brush border membrane vesicles were prepared from the intestinal cells of the small intestine by the so-called Mg^2+ precipitation method. Male New Zealand rabbits (2 to 2.5 kg body weight) were sacrificed by intravenous injection of 0.5 ml of an aqueous solution of 2.5 mg of tetracaine HCl, 100 T 61^R and 25 mg of mebezonium iodide. The small intestine was removed and rinsed with ice-cold physiological saline solution. The terminal 7/10 of the small intestine (measured in the oral-rectal direction, i.e. the terminal ileum, which contains the active Na^+ -dependent bile acid transportation system) was used for preparation of the brush border membrane vesicle. The intestines were frozen in plastic bags under nitrogen at -80° C. For preparation of the membrane vesicles, the frozen intestines were thawed at 30° C. in a water bath. The mucosa was scraped off and suspended in 60 ml of ice-cold 12 mM Tris/HCl buffer (pH 7.1)/300 mM mannitol, 5 mM EGTA/10 mg/1 of phenylmethylsulfonyl fluoride/1 mg/1 of trypsin inhibitor from soybeans (32 U/mg)/0.5 mg/1 of trypsin inhibitor from bovine lung (193 U/mg)/5 mg/1 of bacitracin. After dilution to 300 ml with ice-cold distilled water, the mixture was homogenized with an Ultraturrax (18-rod, IKA Werk Staufen, FRG) for 3 minutes at 75% of the maximum output, while cooling with ice. After addition of 3 ml of 1M MgCl2 solution (final concentration 10 mM), the mixture was left to stand at 0° C. for exactly 1 minute. The cell membranes aggregate by addition of Mg^2+ and precipitate, with the exception of the brush border membranes. After centrifugation at 3000× g (5000 rpm, SS-34 rotor) for 15 minutes, the precipitate was discarded, and the supernatant, which contained the brush border membranes, was centrifuged at […] (15000 rpm, SS-34 rotor) for 30 minutes. The supernatant was discarded and the precipitate was rehomogenized in 60 ml of 12 mM Tris/HCl buffer (pH 7.1)/60 mM mannitol, 5 mM EGTA using a Potter Elvejhem homogenizer (Braun, Melsungen, 900 rpm, 10 strokes). After addition of 0.1 ml of 1 M MgCl2 solution and an incubation time of 15 minutes at 0° C., the mixture was centrifuged again at 3000× g for 15 minutes. The supernatant was then centrifuged again at 46000× g (15000 rpm, SS-34 rotor) for 30 minutes. The precipitate was taken up in 30 ml of 10 mM Tris/Hepes buffer (pH 7.4)/300 mM mannitol and resuspended homogeneously by 20 strokes in a Potter Elvejhem homogenizer at 1000 rpm. After centrifugation at 48000× g (20000 rpm, SS-34 rotor) for 30 minutes, the precipitate was taken up in 0.5 to 2 ml of Tris/Hepes buffer (pH 7.4)/280 mM mannitol (final concentration 20 mg/ml) and resuspended with the aid of a tuberculin syringe with a 27 gauge needle. The vesicles were either used immediately for transportation studies after preparation, or stored at -196° C. in portions of 4 mg in liquid nitrogen.
2. Inhibition of Na^+ -dependent [^3 H]-taurocholate uptake in the brush border membrane vesicles of the ileum
The uptake of substrates into the brush border membrane vesicles described above was determined by means of the so-called membrane filtration technique. 10 μl of the vesicle suspension (100 μg of protein) were pipetted as drops onto the wall of a polystyrene incubation tube (11×70 mm) which contained the incubation medium with the corresponding ligands (90 μl). […]

| Compound | quotient of the IC50Na value of taurochenodesoxycholate (TCDC) standard and the particular substance |
| --- | --- |
| C[C@H](CCC(=O)O)[C@H]1CC[C@H]2[C@@H]3[C@H](O)C[C@@H]4C[C@@H](OCCCCCCNC(N)=O)CC[C@]4(C)[C@H]3C[C@H](O)[C@]12C [Example 21] | 0.33 |
| C[C@H](CCC(=O)O)[C@H]1CC[C@H]2[C@@H]3[C@H](O)C[C@@H]4C[C@H](CCNC(=O)c5cccc6ccccc56)CC[C@]4(C)[C@H]3C[C@H](O)[C@]12C [Example 33] | 0.35 |
| C[C@H](CCC(=O)O)[C@H]1CC[C@H]2[C@@H]3[C@H](O)C[C@@H]4C[C@@H](OCCCCCCCCCO)CC[C@]4(C)[C@H]3C[C@H](O)[C@]12C [Example 4] | 0.69 |
| C[C@H](CCC(=O)O)[C@H]1CC[C@H]2[C@@H]3[C@H](O)C[C@@H]4C[C@@H](OCCCCCCNC(=O)c5cccc6ccccc56)CC[C@]4(C)[C@H]3C[C@H](O)[C@]12C [Example 38] | 0.41 |
| C[C@H](CCC(=O)O)[C@H]1CC[C@H]2[C@@H]3[C@H](O)C[C@@H]4C[C@@H](OCCCCCCOP(=O)(Oc5ccccc5)Oc5ccccc5)CC[C@]4(C)[C@H]3C[C@H](O)[C@]12C [Example 18] | 0.42 |
| C[C@H](CCC(=O)O)[C@H]1CC[C@H]2[C@@H]3[C@H](O)C[C@@H]4C[C@@H](OCCCCCCNC(=O)[C@H](O)[C@@H](O)[C@H](O)[C@H](O)CO)CC[C@]4(C)[C@H]3C[C@H](O)[C@]12C [Example 43] | 0.73 |
| Cc1ccc(S(=O)(=O)NCCCCCCO[C@H]2CC[C@@]3(C)[C@@H](C2)C[C@@H](O)[C@@H]2[C@@H]3C[C@H](O)[C@]3(C)[C@@H]([C@H](C)CCC(=O)O)CC[C@@H]23)cc1 [Example 35] | 1.02 |
| Cc1ccc(S(=O)(=O)N(C)CCCCCCO[C@H]2CC[C@@]3(C)[C@@H](C2)C[C@@H](O)[C@@H]2[C@@H]3C[C@H](O)[C@]3(C)[C@@H]([C@H](C)CCC(=O)O)CC[C@@H]23)cc1 [Example 36] | 0.20 |
| COc1ccc(Cl)cc1C(=O)NCCc1ccc(S(=O)(=O)NC(=O)NCCCCCCO[C@H]2CC[C@@]3(C)[C@@H](C2)C[C@@H](O)[C@@H]2[C@@H]3C[C@H](O)[C@]3(C)[C@@H]([C@H](C)CCC(=O)O)CC[C@@H]23)cc1 [Example 40] | 0.50 |
| C[C@H](CCC(=O)O)[C@H]1CC[C@H]2[C@@H]3[C@H](O)C[C@@H]4C[C@@H](OCCCCCCCCO)CC[C@]4(C)[C@H]3C[C@H](O)[C@]12C [Example 3] | 0.35 |

From patent US5610151A, “Monomeric bile acid derivatives, processes for their preparation and the use of these compounds as medicaments” (Hoechst Aktiengesellschaft, priority 1993, dated 1997)
